Values of other authors as cited in patent US20250319190A1, “APOE LIPOPROTEIN SYSTEMS” (Kisbee Therapeutics, Inc., priority 2022, published 2025).

Key:
[1] = tested on: NPC1 models; settings: cited from earlier work
[2] = tested on: NPC1; settings: administered directly to the CNS; cited from earlier work
[3] = tested on: cellular model for Huntington's disease; settings: in vitro treatment; cited from earlier work
[4] = tested on: mouse model of tauopathy with Parkinsonism; settings: trehalose consumption; cited from earlier work

| Molecule | crossing of the blood-brain barrier ([1]; mouse, in vivo) | CNS manifestations ([1]; subcutaneously or intraperitoneally, very high doses) | efficacy [2] | polyglutamine aggregates and cell survival [3] | anxiety-related behavior [4] | motor function [4] | tau pathology [4] |
| --- | --- | --- | --- | --- | --- | --- | --- |
| 2-hydroxypropyl-β-cyclodextrins [HPβCD] | does not cross the blood-brain barrier in significant amounts | can moderately impact CNS manifestations | far greater HPβCD efficacy at much lower doses |  |  |  |  |
| OC[C@H]1O[C@H](O[C@H]2O[C@H](CO)[C@@H](O)[C@H](O)[C@H]2O)[C@H](O)[C@@H](O)[C@@H]1O [trehalose] |  |  |  | decreased polyglutamine aggregates and/or improved cell survival | Reduced anxiety-related behavior | improved motor function | decreased tau pathology |
